According to US12331040B2 (Karyopharm Therapeutics Inc., priority 2013, dated 2025):

Assays:
AU-565 cells = experiment: MTT cell proliferation assay; type: cell-based; conditions: Homo sapiens, AU565, 72-hour MTT
Experimental: (§1) The MTT cell proliferation assay was used to study the cytotoxic properties of the compounds. The assay was performed according to the method described by Roche Molecular Biochemicals, with minor modifications. The assay is based on the cleavage of the tetrazolium salt, MTT, in the presence of an electron-coupling reagent. The water-insoluble formazan salt produced must be solubilized in an additional step. Cells grown in a 96-well tissue culture plate were incubated with the MTT solution for approximately 4 hours. After this incubation period, a water-insoluble formazan dye formed. After solubilization, the formazan dye was quantitated using a scanning multi-well spectrophotometer (ELISA reader). […] The cells were seeded at 5,000-10,000 cells in each well of 96-well plate in 100 μL of fresh culture medium and were allowed to attach overnight. The stock solutions of the compounds were diluted in 100 μL cell culture medium to obtain eight concentrations of each test compound, ranging from 1 nM to 30 μM. […] All optical densities were measured at 490 nm using a Vmax Kinetic Microplate Reader (Molecular Devices). In most cases, the assay was performed in duplicate and the results were presented as a mean percent inhibition to the negative control±SE. The following formula was used to calculate the percent of inhibition: Inhibition (%)=(1−(ODo/OD))×100.
(§2) Compounds 504, 510, 525 and 585 were further tested against selected solid and hematological cancer cell lines and selected normal cell lines in a 72-hour MTT cell proliferation assay.

BL-40 cells = experiment: MTT cell proliferation assay; type: cell-based; conditions: 72-hour MTT
Experimental: as §1, §2

BT-20 cells = experiment: MTT cell proliferation assay; type: cell-based; conditions: Homo sapiens, 72-hour MTT
Experimental: as §1, §2

Farage cells = experiment: MTT cell proliferation assay; type: cell-based; conditions: 72-hour MTT
Experimental: as §1, §2

HCC-2935 cells = experiment: MTT cell proliferation assay; type: cell-based; conditions: Homo sapiens, HCC2935, 72-hour MTT
Experimental: as §1, §2

HCC-827 cells = experiment: MTT cell proliferation assay; type: cell-based; conditions: Homo sapiens, HCC827, 72-hour MTT
Experimental: as §1, §2

HH cells = experiment: MTT cell proliferation assay; type: cell-based; conditions: Homo sapiens, 72-hour MTT
Experimental: as §1, §2

HPAC cells = experiment: MTT cell proliferation assay; type: cell-based; conditions: Homo sapiens, 72-hour MTT
Experimental: as §1, §2

HPAF-II cells = experiment: MTT cell proliferation assay; type: cell-based; conditions: Homo sapiens, 72-hour MTT
Experimental: as §1, §2

HS-Sultan cells = experiment: MTT cell proliferation assay; type: cell-based; conditions: 72-hour MTT
Experimental: as §1, §2

HT1080 cells = experiment: MTT cell proliferation assay; type: cell-based; conditions: Homo sapiens, HT-1080, 72-hour MTT
Experimental: as §1, §2

Jurkat cells = experiment: MTT cell proliferation assay; type: cell-based; conditions: Homo sapiens, 72-hour MTT
Experimental: as §1, §2

MCF-12A cells = experiment: MTT cell proliferation assay; type: cell-based; conditions: Homo sapiens, 72-hour MTT
Experimental: as §1, §2

MHCC97H cells = experiment: MTT cell proliferation assay; type: cell-based; conditions: Homo sapiens, 72-hour MTT
Experimental: as §1, §2

MINO cells = experiment: MTT cell proliferation assay; type: cell-based; conditions: Homo sapiens, 72-hour MTT
Experimental: as §1, §2

MO7e cells = experiment: MTT cell proliferation assay; type: cell-based; conditions: 72-hour MTT
Experimental: as §1, §2

MSTO-211H cells = experiment: MTT cell proliferation assay; type: cell-based; conditions: Homo sapiens, 72-hour MTT
Experimental: as §1, §2

MV-4-11 cells = experiment: MTT cell proliferation assay; type: cell-based; conditions: Homo sapiens, MV4-11, 72-hour MTT
Experimental: as §1, §2

NCI-H187 cells = experiment: MTT cell proliferation assay; type: cell-based; conditions: Homo sapiens, 72-hour MTT
Experimental: as §1, §2

NCI-H1993 cells = experiment: MTT cell proliferation assay; type: cell-based; conditions: Homo sapiens, 72-hour MTT
Experimental: as §1, §2

NCI-H747 cells = experiment: MTT cell proliferation assay; type: cell-based; conditions: Homo sapiens, 72-hour MTT
Experimental: as §1, §2

NCI-H929 cells = experiment: MTT cell proliferation assay; type: cell-based; conditions: Homo sapiens, 72-hour MTT
Experimental: as §1, §2

OCIAML5 cells = experiment: MTT cell proliferation assay; type: cell-based; conditions: Homo sapiens, OCI-AML-5, 72-hour MTT
Experimental: as §1, §2

PATU-8902 cells = experiment: MTT cell proliferation assay; type: cell-based; conditions: 72-hour MTT
Experimental: as §1, §2

PBMC = experiment: MTT cell proliferation assay; type: cell-based; conditions: 72-hour MTT
Experimental: as §1, §2

PL-45 cells = experiment: MTT cell proliferation assay; type: cell-based; conditions: PL45, 72-hour MTT
Experimental: as §1, §2

RKO cells = experiment: MTT cell proliferation assay; type: cell-based; conditions: Homo sapiens, 72-hour MTT
Experimental: as §1, §2

SW-48 cells = experiment: MTT cell proliferation assay; type: cell-based; conditions: Homo sapiens, SW48, 72-hour MTT
Experimental: as §1, §2

SW-480 cells = experiment: MTT cell proliferation assay; type: cell-based; conditions: Homo sapiens, SW480, 72-hour MTT
Experimental: as §1, §2

SW-948 cells = experiment: MTT cell proliferation assay; type: cell-based; conditions: Homo sapiens, SW948, 72-hour MTT
Experimental: as §1, §2

T47D cells = experiment: MTT cell proliferation assay; type: cell-based; conditions: Homo sapiens, 72-hour MTT
Experimental: as §1, §2

Tera-1 cells = experiment: MTT cell proliferation assay; type: cell-based; conditions: 72-hour MTT
Experimental: as §1, §2

Toledo cells = experiment: MTT cell proliferation assay; type: cell-based; conditions: Homo sapiens, 72-hour MTT
Experimental: as §1, §2

U-266 cells = experiment: MTT cell proliferation assay; type: cell-based; conditions: Homo sapiens, 72-hour MTT
Experimental: as §1, §2

U-937 cells = experiment: MTT cell proliferation assay; type: cell-based; conditions: Homo sapiens, 72-hour MTT
Experimental: as §1, §2

U118MG cells = experiment: MTT cell proliferation assay; type: cell-based; conditions: Homo sapiens, U-118-MG, 72-hour MTT
Experimental: as §1, §2

U2OS cells = experiment: Western blots of autophagy, stress and cell cycle markers in U2OS cells; type: cell-based, human; conditions: 1 μM or 10 μM, 48 hours, Western blot
Experimental: U2OS cells were plated in a 6-well plate overnight. The next day, the cells were treated with 1 μM or 10 μM Compound 585 for 48 hours, then collected and lysed in RIPA buffer. The lysate was run on SDS-PAGE and Western blots of PAK4, PUMA, CHOP, p21, cyclin D, MLH1, p-AMPK, AMPK and LC3 were performed.

Structure (SMILES): Nc1ccc(/C=C/C(=O)NCc2cc3cc(-c4ccc(C(=O)N5CCC(F)(F)CC5)cn4)cc(C(F)(F)F)c3o2)cn1 [Compound 585, (E)-3-(6-aminopyridin-3-yl)-N-((5-(5-(4,4-difluoropiperidine-1-carbonyl)pyridin-2-yl)-7-(trifluoromethyl)benzofuran-2-yl)methyl)acrylamide]
- IC50 (AU-565 cells): 140 nM
- IC50 (BL-40 cells): 300 nM
- IC50 (BT-20 cells): 540 nM
- IC50 (Farage cells): 70 nM
- IC50 (HCC-2935 cells): 4390 nM
- IC50 (HCC-827 cells): 780 nM
- IC50 (HH cells): 90 nM
- IC50 (HPAC cells): 380 nM
- IC50 (HPAF-II cells): 550 nM
- IC50 (HS-Sultan cells): 200 nM
- IC50 (HT1080 cells): 210 nM
- IC50 (Jurkat cells): 40 nM
- IC50 (MCF-12A cells): 380 nM
- IC50 (MHCC97H cells): > 10000 nM
- IC50 (MINO cells): 110 nM
- IC50 (MO7e cells): 20 nM
- IC50 (MSTO-211H cells): 250 nM
- IC50 (MV-4-11 cells): 90 nM
- IC50 (NCI-H187 cells): 70 nM
- IC50 (NCI-H1993 cells): > 10000 nM
- IC50 (NCI-H747 cells): 590 nM
- IC50 (NCI-H929 cells): 930 nM
- IC50 (OCIAML5 cells): 50 nM
- IC50 (PATU-8902 cells): 510 nM
- IC50 (PBMC): 2200 nM
- IC50 (PL-45 cells): 1010 nM
- IC50 (RKO cells): 50 nM
- IC50 (SW-48 cells): 170 nM
- IC50 (SW-480 cells): 480 nM
- IC50 (SW-948 cells): 910 nM
- IC50 (T47D cells): 40 nM
- IC50 (Tera-1 cells): 120 nM
- IC50 (Toledo cells): 50 nM
- IC50 (U-266 cells): 310 nM
- IC50 (U-937 cells): 260 nM
- IC50 (U118MG cells): 50 nM
- cell cycle proteins, p21 and cyclin D1 (U2OS cells): reduced
- markers of stress response and autophagy (AMPK phosphorylation, short form of LC3 lysosome marker) (U2OS cells): induced markers of stress response and autophagy
